Read-outs that look alike come from different tables or passages of the source.
Tests used:
GIP-R = biological target: T1, GIP-R (Homo sapiens, UniProt P48546); experiment: HitHunter cAMP assay (GIP-R); type: cell-based; conditions: for Emax: read-out: (Emax) GIP-R
T1 sequence (P48546 22-466): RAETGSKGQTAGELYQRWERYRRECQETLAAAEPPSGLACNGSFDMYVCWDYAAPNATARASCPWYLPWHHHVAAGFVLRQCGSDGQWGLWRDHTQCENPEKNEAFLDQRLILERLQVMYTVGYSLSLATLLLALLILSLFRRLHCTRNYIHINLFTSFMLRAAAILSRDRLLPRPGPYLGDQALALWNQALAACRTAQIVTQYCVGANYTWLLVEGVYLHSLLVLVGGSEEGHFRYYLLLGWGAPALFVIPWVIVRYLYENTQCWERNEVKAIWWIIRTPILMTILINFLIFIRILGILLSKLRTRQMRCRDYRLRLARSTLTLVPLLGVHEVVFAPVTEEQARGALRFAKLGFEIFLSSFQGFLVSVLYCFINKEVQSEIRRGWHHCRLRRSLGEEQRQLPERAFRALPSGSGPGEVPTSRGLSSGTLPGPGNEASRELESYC
Outline: (§1)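 Duplicate 22-point, 2-fold agonist titrations applied to receptor-expressing suspension cells in IBMX-containing HBSS; 30 min RT stimulation. Read: luminescent cAMP immunocompetition after O/N dark incubation.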

GLP-1R = GLP-1R (Homo sapiens, UniProt P43220); experiment: HitHunter cAMP assay (GLP-1R); type: cell-based; conditions: for Emax: read-out: (Emax) GLP-1R
Chain of GLP-1R (P43220 24-463): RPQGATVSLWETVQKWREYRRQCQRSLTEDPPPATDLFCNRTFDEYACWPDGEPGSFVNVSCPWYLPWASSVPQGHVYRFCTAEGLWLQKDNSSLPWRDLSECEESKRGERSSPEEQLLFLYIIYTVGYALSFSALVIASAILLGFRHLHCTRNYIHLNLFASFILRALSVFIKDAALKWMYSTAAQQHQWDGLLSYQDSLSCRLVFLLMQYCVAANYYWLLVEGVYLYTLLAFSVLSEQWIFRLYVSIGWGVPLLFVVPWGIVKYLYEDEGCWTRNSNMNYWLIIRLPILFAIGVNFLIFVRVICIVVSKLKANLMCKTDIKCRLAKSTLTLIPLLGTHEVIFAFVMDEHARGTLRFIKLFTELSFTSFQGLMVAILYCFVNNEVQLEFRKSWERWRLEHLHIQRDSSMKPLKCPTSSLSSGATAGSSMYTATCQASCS
Outline: as §1

SMILES | EC50 (GIP-R; EC50 GIP-R/nM, Table 3, cAMP) [nM] | Emax at 1 µM (GIP-R; read-out: (Emax) GIP-R at 1 μM) [%] | EC50 (GIP-R; read-out: EC50 GIP-R/nM, Table 3A, cAMP) [nM] | EC50 (GLP-1R) [nM] | Emax (GLP-1R) [%] | EC50 (GLP-1R; read-out: EC50 GLP-1R/nM, Table 3A, cAMP) [nM] | Emax (GIP-R; Table 3A, cAMP) [%] | EC50 (GIP-R; Table 3A, cAMP, read-out: EC50 GIP-R/nM) [nM] | EC50 (GLP-1R; Table 3A, cAMP, read-out: EC50 GLP-1R/nM) [nM] | EC50 (GIP-R; EC50 GIP-R/nM, Table 3A, cAMP) [nM] | Emax (GIP-R; Table 3, cAMP) [%] | EC50 (GLP-1R; EC50 GLP-1R/nM, Table 3, cAMP) [nM] | EC50 (GLP-1R; EC50 GLP-1R/nM, Table 3A, cAMP) [nM] | Emax (GLP-1R; Table 3, cAMP) [%] | Emax (GLP-1R; Table 3A, cAMP) [%] | Emax at 1 µM (GIP-R; read-out: (Emax) GIP-R at 1 μM, Table 3, cAMP, at 1 μM) [%]
CC[C@H](C)[C@H](NC(=O)[C@H](CO)NC(=O)[C@H](Cc1ccc(O)cc1)NC(=O)[C@H](CC(=O)O)NC(=O)[C@H](CO)NC(=O)[C@@H](NC(=O)[C@H](Cc1ccccc1)NC(=O)[C@@H](NC(=O)CNC(=O)[C@H](CCC(=O)O)NC(=O)CSCC(=O)NCCN(C)C(=O)c1ccccc1)[C@@H](C)O)[C@@H](C)O)C(=O)N[C@@H](Cc1ccc(O)cc1)C(=O)N[C@@H](CC(C)C)C(=O)N[C@@H](CC(=O)O)C(=O)N[C@@H](CCCCN)C(=O)N[C@@H](CCC(N)=O)C(=O)N[C@@H](C)C(=O)N[C@@H](C)C(=O)NC(C)(C)C(=O)N[C@@H](CCC(=O)O)C(=O)N[C@@H](Cc1ccccc1)C(=O)N[C@H](C(=O)N[C@@H](CC(N)=O)C(=O)N[C@@H](Cc1c[nH]c2ccccc12)C(=O)N[C@@H](CC(C)C)C(=O)N[C@@H](CC(C)C)C(=O)N[C@@H](C)C(=O)NCC(=O)NCC(=O)N1CCC[C@H]1C(=O)N[C@@H](CO)C(=O)N[C@@H](CO)C(=O)NCC(=O)N[C@@H](C)C(=O)N1CCC[C@H]1C(=O)N1CCC[C@H]1C(=O)N1CCC[C@H]1C(=O)N[C@@H](CO)C(=O)N[C@@H](CCCCN)C(N)=O)C(C)C [Compound 169] | > 1000 | 6 to 8 | > 1000 | 1 to 10 | 96 | 1 to 10 |  |  |  |  |  |  |  |  |  | 
CCCCCCCCCCCCCCCC(=O)N[C@@H](CCC(=O)NCCCC[C@H](NC(=O)[C@H](CO)NC(=O)[C@@H]1CCCN1C(=O)[C@@H]1CCCN1C(=O)[C@@H]1CCCN1C(=O)[C@H](C)NC(=O)CNC(=O)[C@H](CO)NC(=O)[C@H](CO)NC(=O)[C@@H]1CCCN1C(=O)CNC(=O)CNC(=O)[C@H](C)NC(=O)[C@H](CC(C)C)NC(=O)[C@H](CC(C)C)NC(=O)[C@H](Cc1c[nH]c2ccccc12)NC(=O)[C@H](CC(N)=O)NC(=O)[C@@H](NC(=O)[C@H](Cc1ccccc1)NC(=O)[C@H](CCC(=O)O)NC(=O)C(C)(C)NC(=O)[C@H](C)NC(=O)[C@H](C)NC(=O)[C@H](CCC(N)=O)NC(=O)[C@H](CCCCN)NC(=O)[C@H](CC(=O)O)NC(=O)[C@H](CC(C)C)NC(=O)[C@H](Cc1ccc(O)cc1)NC(=O)[C@@H](NC(=O)[C@H](CO)NC(=O)[C@H](Cc1ccc(O)cc1)NC(=O)[C@H](CC(=O)O)NC(=O)[C@H](CO)NC(=O)[C@@H](NC(=O)[C@H](Cc1ccccc1)NC(=O)[C@@H](NC(=O)CNC(=O)[C@H](CCC(=O)O)NC(=O)C(C)(C)C(=O)NCCn1ccccc1=O)[C@@H](C)O)[C@@H](C)O)[C@@H](C)CC)C(C)C)C(N)=O)C(=O)O [Compound 254] |  |  |  |  |  |  | 80 | 1 to 10 | < 0.1 |  |  |  |  |  |  | 
CCCCCCCCCCCCCCCC(=O)N[C@@H](CCC(=O)NCCCC[C@H](NC(=O)[C@H](CO)NC(=O)[C@@H]1CCCN1C(=O)[C@@H]1CCCN1C(=O)[C@@H]1CCCN1C(=O)[C@H](C)NC(=O)CNC(=O)[C@H](CO)NC(=O)[C@H](CO)NC(=O)[C@@H]1CCCN1C(=O)CNC(=O)CNC(=O)[C@H](C)NC(=O)[C@H](CC(C)C)NC(=O)[C@H](CC(C)C)NC(=O)[C@H](Cc1c[nH]c2ccccc12)NC(=O)[C@H](CC(N)=O)NC(=O)[C@@H](NC(=O)[C@H](Cc1ccccc1)NC(=O)[C@H](CCC(=O)O)NC(=O)C(C)(C)NC(=O)[C@H](C)NC(=O)[C@H](C)NC(=O)[C@H](CCC(N)=O)NC(=O)[C@H](CCCCN)NC(=O)[C@H](CC(=O)O)NC(=O)[C@H](CC(C)C)NC(=O)[C@H](Cc1ccc(O)cc1)NC(=O)[C@@H](NC(=O)[C@H](CO)NC(=O)[C@H](Cc1ccc(O)cc1)NC(=O)[C@H](CC(=O)O)NC(=O)[C@H](CO)NC(=O)[C@@H](NC(=O)[C@H](Cc1ccccc1)NC(=O)[C@@H](NC(=O)CNC(=O)[C@H](CCC(=O)O)NC(=O)CSCC(=O)NCCN1C(=O)CC(C)(C)CC1=O)[C@@H](C)O)[C@@H](C)O)[C@@H](C)CC)C(C)C)C(N)=O)C(=O)O [Compound 82] | 1 to 10 |  |  |  |  |  | 82 |  |  | 1 to 10 | 82 | 1 to 10 | 1 to 10 | 95 | 95 | 
CCCCCCCCCCCCCCCC(=O)N[C@@H](CCC(=O)NCCCC[C@H](NC(=O)[C@H](CO)NC(=O)[C@@H]1CCCN1C(=O)[C@@H]1CCCN1C(=O)[C@@H]1CCCN1C(=O)[C@H](C)NC(=O)CNC(=O)[C@H](CO)NC(=O)[C@H](CO)NC(=O)[C@@H]1CCCN1C(=O)CNC(=O)CNC(=O)[C@H](C)NC(=O)[C@H](CC(C)C)NC(=O)[C@H](CC(C)C)NC(=O)[C@H](Cc1c[nH]c2ccccc12)NC(=O)[C@H](CC(N)=O)NC(=O)[C@@H](NC(=O)[C@H](Cc1ccccc1)NC(=O)[C@H](CCC(=O)O)NC(=O)C(C)(C)NC(=O)[C@H](C)NC(=O)[C@H](C)NC(=O)[C@H](CCC(N)=O)NC(=O)[C@H](CCCCN)NC(=O)[C@H](CC(=O)O)NC(=O)[C@H](CC(C)C)NC(=O)[C@H](Cc1ccc(O)cc1)NC(=O)[C@@H](NC(=O)[C@H](CO)NC(=O)[C@H](Cc1ccc(O)cc1)NC(=O)[C@H](CC(=O)O)NC(=O)[C@H](CO)NC(=O)[C@@H](NC(=O)[C@H](Cc1ccccc1)NC(=O)[C@@H](NC(=O)CNC(=O)[C@H](CCC(=O)O)NC(=O)CSCC(=O)NCCN1C(=O)[C@@H]2C=C[C@H]1C2)[C@@H](C)O)[C@@H](C)O)[C@@H](C)CC)C(C)C)C(N)=O)C(=O)O [Compound 290] |  |  |  |  |  |  | 10 |  |  | 10 to 100 |  |  | < 0.1 |  | 100 | 
CC[C@H](C)[C@H](NC(=O)[C@H](CO)NC(=O)[C@H](Cc1ccc(O)cc1)NC(=O)[C@H](CC(=O)O)NC(=O)[C@H](CO)NC(=O)[C@@H](NC(=O)[C@H](Cc1ccccc1)NC(=O)[C@@H](NC(=O)CNC(=O)[C@H](CCC(=O)O)NC(=O)CSCC(=O)NCCN1C(=O)CC(c2ccccc2)C1=O)[C@@H](C)O)[C@@H](C)O)C(=O)N[C@@H](Cc1ccc(O)cc1)C(=O)N[C@@H](CC(C)C)C(=O)N[C@@H](CC(=O)O)C(=O)N[C@@H](CCCCN)C(=O)N[C@@H](CCC(N)=O)C(=O)N[C@@H](C)C(=O)N[C@@H](C)C(=O)NC(C)(C)C(=O)N[C@@H](CCC(=O)O)C(=O)N[C@@H](Cc1ccccc1)C(=O)N[C@H](C(=O)N[C@@H](CC(N)=O)C(=O)N[C@@H](Cc1c[nH]c2ccccc12)C(=O)N[C@@H](CC(C)C)C(=O)N[C@@H](CC(C)C)C(=O)N[C@@H](C)C(=O)NCC(=O)NCC(=O)N1CCC[C@H]1C(=O)N[C@@H](CO)C(=O)N[C@@H](CO)C(=O)NCC(=O)N[C@@H](C)C(=O)N1CCC[C@H]1C(=O)N1CCC[C@H]1C(=O)N1CCC[C@H]1C(=O)N[C@@H](CO)C(=O)N[C@@H](CCCCN)C(N)=O)C(C)C (mixture of isomers) [Compound 105] | 10 to 100 |  |  |  |  |  |  |  |  |  |  | 10 to 100 | 10 to 100 | 90 | 90 | < 10
CCCCCCCCCCCCCCCC(=O)N[C@@H](CCC(=O)NCCCC[C@H](NC(=O)[C@H](CO)NC(=O)[C@@H]1CCCN1C(=O)[C@@H]1CCCN1C(=O)[C@@H]1CCCN1C(=O)[C@H](C)NC(=O)CNC(=O)[C@H](CO)NC(=O)[C@H](CO)NC(=O)[C@@H]1CCCN1C(=O)CNC(=O)CNC(=O)[C@H](C)NC(=O)[C@H](CC(C)C)NC(=O)[C@H](CC(C)C)NC(=O)[C@H](Cc1c[nH]c2ccccc12)NC(=O)[C@H](CC(N)=O)NC(=O)[C@@H](NC(=O)[C@H](Cc1ccccc1)NC(=O)[C@H](CCC(=O)O)NC(=O)C(C)(C)NC(=O)[C@H](C)NC(=O)[C@H](C)NC(=O)[C@H](CCC(N)=O)NC(=O)[C@H](CCCCN)NC(=O)[C@H](CC(=O)O)NC(=O)[C@H](CC(C)C)NC(=O)[C@H](Cc1ccc(O)cc1)NC(=O)[C@@H](NC(=O)[C@H](CO)NC(=O)[C@H](Cc1ccc(O)cc1)NC(=O)[C@H](CC(=O)O)NC(=O)[C@H](CO)NC(=O)[C@@H](NC(=O)[C@H](Cc1ccccc1)NC(=O)[C@@H](NC(=O)CNC(=O)[C@H](CCC(=O)O)NC(=O)CSCC(=O)NCCN1C(=O)[C@H](C)C[C@H](C)C1=O)[C@@H](C)O)[C@@H](C)O)[C@@H](C)CC)C(C)C)C(N)=O)C(=O)O [Compound 88] | 1 to 10 |  |  |  |  |  | 102 |  |  | 1 to 10 | 102 | 1 to 10 | 1 to 10 | 108 | 108 | 
